In one assay the target is T1, human Nav1.8 (Homo sapiens, UniProt Q9Y5Y9).
T1 construct: expressed in transfected cells; host or cells: HEK293 (HEK293-Nav1.8)
T1 sequence (Q9Y5Y9 whole entry): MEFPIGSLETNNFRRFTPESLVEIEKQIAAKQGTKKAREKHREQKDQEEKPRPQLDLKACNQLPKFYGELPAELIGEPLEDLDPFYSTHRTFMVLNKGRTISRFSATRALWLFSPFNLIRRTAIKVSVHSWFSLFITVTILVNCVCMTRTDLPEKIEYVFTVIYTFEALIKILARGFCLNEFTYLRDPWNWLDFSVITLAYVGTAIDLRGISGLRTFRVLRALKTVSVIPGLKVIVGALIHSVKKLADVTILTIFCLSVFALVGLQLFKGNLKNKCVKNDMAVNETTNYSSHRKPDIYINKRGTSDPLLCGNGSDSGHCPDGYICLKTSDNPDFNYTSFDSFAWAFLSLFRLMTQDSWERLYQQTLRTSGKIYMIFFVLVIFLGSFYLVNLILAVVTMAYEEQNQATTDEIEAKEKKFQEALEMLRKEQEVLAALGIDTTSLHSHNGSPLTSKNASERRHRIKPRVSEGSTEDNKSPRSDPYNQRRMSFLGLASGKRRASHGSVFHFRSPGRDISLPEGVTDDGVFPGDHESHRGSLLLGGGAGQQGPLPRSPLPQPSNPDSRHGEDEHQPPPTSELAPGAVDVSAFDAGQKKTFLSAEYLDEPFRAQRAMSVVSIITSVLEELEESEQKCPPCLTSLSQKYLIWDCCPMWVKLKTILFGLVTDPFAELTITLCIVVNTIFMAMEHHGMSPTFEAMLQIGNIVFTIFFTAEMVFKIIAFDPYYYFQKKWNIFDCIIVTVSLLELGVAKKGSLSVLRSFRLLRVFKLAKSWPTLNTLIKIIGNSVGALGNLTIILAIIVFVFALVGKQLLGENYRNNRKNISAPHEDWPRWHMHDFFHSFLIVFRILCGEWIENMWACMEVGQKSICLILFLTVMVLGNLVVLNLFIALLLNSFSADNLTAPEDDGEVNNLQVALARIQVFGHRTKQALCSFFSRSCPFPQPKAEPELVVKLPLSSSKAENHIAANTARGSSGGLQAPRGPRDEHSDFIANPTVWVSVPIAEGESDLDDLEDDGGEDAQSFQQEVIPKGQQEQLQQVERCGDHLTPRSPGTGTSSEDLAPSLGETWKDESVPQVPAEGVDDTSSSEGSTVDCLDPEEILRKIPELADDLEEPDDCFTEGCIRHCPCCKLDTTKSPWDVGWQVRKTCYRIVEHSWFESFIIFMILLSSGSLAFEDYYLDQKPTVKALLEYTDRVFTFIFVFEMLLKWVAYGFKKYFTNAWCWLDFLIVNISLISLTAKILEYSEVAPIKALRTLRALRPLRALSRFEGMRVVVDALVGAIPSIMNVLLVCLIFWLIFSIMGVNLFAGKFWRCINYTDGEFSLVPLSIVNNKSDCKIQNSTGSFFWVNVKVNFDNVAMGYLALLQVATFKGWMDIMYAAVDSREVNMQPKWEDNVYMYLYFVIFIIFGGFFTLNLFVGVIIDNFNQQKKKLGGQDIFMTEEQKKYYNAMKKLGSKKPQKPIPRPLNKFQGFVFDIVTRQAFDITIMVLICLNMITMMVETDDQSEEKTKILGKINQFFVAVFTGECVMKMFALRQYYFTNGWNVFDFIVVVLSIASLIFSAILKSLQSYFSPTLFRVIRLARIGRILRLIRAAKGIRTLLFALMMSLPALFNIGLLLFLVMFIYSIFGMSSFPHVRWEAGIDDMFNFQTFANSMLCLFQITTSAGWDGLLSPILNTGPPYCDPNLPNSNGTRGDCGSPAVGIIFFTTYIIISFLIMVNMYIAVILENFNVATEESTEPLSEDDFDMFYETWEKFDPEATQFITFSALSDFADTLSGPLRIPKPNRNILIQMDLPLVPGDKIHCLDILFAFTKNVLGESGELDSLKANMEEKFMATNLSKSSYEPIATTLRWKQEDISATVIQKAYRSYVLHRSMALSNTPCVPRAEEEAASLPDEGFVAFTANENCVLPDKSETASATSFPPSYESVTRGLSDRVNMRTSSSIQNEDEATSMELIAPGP
T1 sequence (Q07699 19-218 partner): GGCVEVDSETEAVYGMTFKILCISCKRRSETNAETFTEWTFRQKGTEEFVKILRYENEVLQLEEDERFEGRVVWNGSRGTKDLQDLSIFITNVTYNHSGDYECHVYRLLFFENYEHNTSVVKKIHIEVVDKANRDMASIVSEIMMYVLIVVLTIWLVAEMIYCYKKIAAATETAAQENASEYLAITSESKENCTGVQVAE
The assay is described as follows: Nav1.8 sodium channels assay, QPatch 48 HTX electrophysiology in HEK293-Nav1.8 cells. Format: cell-based. To be noted: Table 1; HEK293-Nav1.8, QPatch 48 HTX, half inactivation state voltage protocol (V1/2); single run or average of two or more runs; read-out: Nav1.8 pIC50 (converted). The gist of the method: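 HEK293 cells co-expressing human Nav1.8, Navβ1 and TREK1 were voltage-clamped on QPatch 48 HTX. The V1/2 protocol ran at 0.07 Hz: hold −100 mV, 20 ms to 0 mV, 8 s at −46 mV, 20 ms at −100 mV, then 20 ms at 0 mV (P2). P2 current was fitted over 6-8 concentrations for IC50, with vehicle wells used to correct for run-down.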
Background: The patch-clamp technique gives a direct electrical read-out from membranes.
In the case of `Cc1cc(F)ccc1N1CN(c2ccc(=O)[nH]c2C)C(=O)c2ccccc21` [drawing 297, 1-(4-fluoro-2-methylphenyl)-3-(2-methyl-6-oxo-1,6-dihydropyridin-3-yl)-2,3-dihydroquinazolin-4(1H)-one], the IC50 is 63.1 nM.

As for `Cc1cc(F)cc(C)c1N1CN(c2ccc(=O)[nH]c2)C(=O)c2ccc(C(F)(F)F)cc21` [drawing 270, 1-(4-fluoro-2,6-dimethylphenyl)-3-(6-oxo-1,6-dihydropyridin-3-yl)-7-(trifluoromethyl)-2,3-dihydroquinazolin-4(1H)-one], the IC50 was 2510 nM.

Turning to `Cc1cc(F)ccc1N1CN(c2ccc(=O)[nH]c2C)C(=O)c2cc(Cl)ccc21` [drawing 293, 6-chloro-1-(4-fluoro-2-methylphenyl)-3-(2-methyl-6-oxo-1,6-dihydropyridin-3-yl)-2,3-dihydroquinazolin-4(1H)-one], the IC50 was 10 nM.

In the case of `Cc1cc(F)ccc1N1CN(c2ncc(=O)[nH]c2C)C(=O)c2ccc(C(F)(F)F)cc21` [drawing 308, 1-(4-fluoro-2-methylphenyl)-3-(3-methyl-5-oxo-4,5-dihydropyrazin-2-yl)-7-(trifluoromethyl)-2,3-dihydroquinazolin-4(1H)-one], the IC50 is 398 nM.

Consider `Cc1cc(F)ccc1N1CN(c2ccc(=O)[nH]c2C#N)C(=O)c2ccc(C(F)(F)F)cc21` [drawing 300, 3-(1-(4-fluoro-2-methylphenyl)-4-oxo-7-(trifluoromethyl)-1,4-dihydroquinazolin-3(2H)-yl)-6-oxo-1,6-dihydropyridine-2-carbonitrile], for which the IC50 was 251 nM.

On to `Cc1ncccc1N1CN(c2ccc(=O)[nH]c2C)C(=O)c2ccc(C(F)(F)F)cc21` [drawing 289, 3-(2-methyl-6-oxo-1,6-dihydropyridin-3-yl)-1-(2-methylpyridin-3-yl)-7-(trifluoromethyl)-2,3-dihydroquinazolin-4(1H)-one], for which the IC50 is 2510 nM.

The assay is the same for the next values; noted with them: Table 2; HEK293-Nav1.8, QPatch 48 HTX, half inactivation state voltage protocol (V1/2); single run or average of two or more runs; read-out: Nav1.8 pIC50 (converted).
Regarding `Cc1c[nH]c(=O)cc1N1CN(c2ccc(F)cc2C)c2cc(C(F)(F)F)ccc2C1=O` [drawing 311, 1-(4-fluoro-2-methylphenyl)-3-(5-methyl-2-oxo-1,2-dihydropyridin-4-yl)-7-(trifluoromethyl)-2,3-dihydroquinazolin-4(1H)-one], the IC50 was 1000 nM.

Staying with this assay, now noted: at least one set of experimental runs; read-out: average pIC50 value against Nav1.8 (converted).
Take `Cc1cc(F)ccc1N1CN(c2cc(F)c(=O)[nH]c2C)C(=O)c2cc(C(F)(F)F)ccc21` [Example 131, 3-(5-fluoro-2-methyl-6-oxo-1,6-dihydropyridin-3-yl)-1-(4-fluoro-2-methylphenyl)-6-(trifluoromethyl)-2,3-dihydroquinazolin-4(1H)-one]: the IC50 is at most 100 nM.

Consider `Cc1cc(F)ccc1N1CN(c2ccc(=O)[nH]c2C)C(=O)c2cc(Cl)c(F)cc21` [Example 104, 6-chloro-7-fluoro-1-(4-fluoro-2-methylphenyl)-3-(2-methyl-6-oxo-1,6-dihydropyridin-3-yl)-2,3-dihydroquinazolin-4(1H)-one], for which the IC50 is at most 100 nM.

Consider `COc1ccc(N2CN(c3ccc(=O)[nH]c3C)C(=O)c3cc(C(F)(F)F)ccc32)c(C)c1` [Example 126, 1-(4-methoxy-2-methylphenyl)-3-(2-methyl-6-oxo-1,6-dihydropyridin-3-yl)-6-(trifluoromethyl)-2,3-dihydroquinazolin-4(1H)-one], for which the IC50 was at most 100 nM.

As to `Cc1cc(F)ccc1N1CN(c2ccc(=O)[nH]c2Cl)C(=O)c2ccc(C(F)(F)F)cc21` [Example 151, 3-(2-chloro-6-oxo-1,6-dihydropyridin-3-yl)-1-(4-fluoro-2-methylphenyl)-7-(trifluoromethyl)-2,3-dihydroquinazolin-4(1H)-one], the IC50 was 794 to 7940 nM.

On to `Cc1cc(F)ccc1N1CN(c2ccc(=O)[nH]c2C)C(=O)c2cc(C#N)ccc21` [Example 75, 1-(4-fluoro-2-methylphenyl)-3-(2-methyl-6-oxo-1,6-dihydropyridin-3-yl)-4-oxo-1,2,3,4-tetrahydroquin-azoline-6-carbonitrile], for which the IC50 was 126 to 631 nM.

Consider `Cc1cc(F)ccc1N1CN(c2ccc(=O)[nH]c2C)C(=O)c2cc(Cl)ccc21` [Example 48, 6-chloro-1-(4-fluoro-2-methylphenyl)-3-(2-methyl-6-oxo-1,6-dihydropyridin-3-yl)-2,3-dihydroquinazolin-4(1H)-one], for which the IC50 was at most 100 nM.

`Cc1[nH]c(=O)ccc1N1CN(c2ccccc2)c2cc(C(F)(F)F)ccc2C1=O` [Example 86, 3-(2-methyl-6-oxo-1,6-dihydropyridin-3-yl)-1-phenyl-7-(trifluoromethyl)-2,3-dihydroquinazolin-4(1H)-one]: the IC50 was 794 to 7940 nM.

As to `Cc1cc(F)ccc1N1CN(c2ccc(=O)[nH]c2C)C(=O)c2cc(F)c(Cl)cc21` [Example 109, 7-chloro-6-fluoro-1-(4-fluoro-2-methylphenyl)-3-(2-methyl-6-oxo-1,6-dihydropyridin-3-yl)-2,3-dihydroquinazolin-4(1H)-one], the IC50 is at most 100 nM.

For `Cc1cc(F)ccc1N1CN(c2cnc(=O)[nH]c2C)C(=O)c2ccc(OC(F)(F)F)cc21` [Example 205, 1-(4-fluoro-2-methylphenyl)-3-(6-methyl-2-oxo-1,2-dihydropyrimidin-5-yl)-7-(trifluoromethoxy)-2,3-dihydroquinazolin-4(1H)-one], the IC50 was at most 100 nM.

In the case of `CCc1cc(F)ccc1N1CN(c2ccc(=O)[nH]c2C)C(=O)c2cc(Cl)c(C#N)cc21` [Example 192, 6-chloro-1-(2-ethyl-4-fluorophenyl)-3-(2-methyl-6-oxo-1,6-dihydropyridin-3-yl)-4-oxo-1,2,3,4-tetra-hydroquinazoline-7-carbonitrile], the IC50 was at most 100 nM.

Regarding `Cc1cc(OC(F)(F)F)ccc1N1CN(c2ccc(=O)[nH]c2)C(=O)c2cc(C(F)(F)F)ccc21` [Example 231, 1-(2-methyl-4-(trifluoromethoxy)phenyl)-3-(6-oxo-1,6-dihydropyridin-3-yl)-6-(trifluoromethyl)-2,3-dihydroquinazolin-4(1H)-one], the IC50 is at most 100 nM.

In the case of `CC(=O)Nc1cccc(N2CN(c3ccc(F)cc3C)c3cc(C(F)(F)F)ccc3C2=O)c1` [Example 5, N-(3-(1-(4-fluoro-2-methylphenyl)-4-oxo-7-(trifluoromethyl)-1,4-dihydroquinazolin-3(2H)-yl)phenyl)aceta-mide], the IC50 was 794 to 7940 nM.

In the case of `Cc1cc(OC(F)(F)F)ccc1N1CN(c2ccc(=O)[nH]c2C)C(=O)c2c1ccc(Cl)c2F` [Example 74, 6-chloro-5-fluoro-1-(2-methyl-4-(trifluorometh-oxy)phenyl)-3-(2-methyl-6-oxo-1,6-dihydropyridin-3-yl)-2,3-dihydroquinazolin-4(1H)-one], the IC50 was at most 100 nM.

Turning to `Cc1ccccc1N1CN(c2ccc(=O)[nH]c2C)C(=O)c2ccccc21` [Example 50, 3-(2-methyl-6-oxo-1,6-dihydropyridin-3-yl)-1-(o-tolyl)-2,3-dihydroquinazolin-4(1H)-one], the IC50 is 126 to 631 nM.

Take `Cc1cc(F)ccc1N1CN(c2ccc(=O)[nH]c2C)C(=O)c2cc(F)c(C(F)(F)F)cc21` [Example 110, 6-fluoro-1-(4-fluoro-2-methylphenyl)-3-(2-methyl-6-oxo-1,6-dihydropyridin-3-yl)-7-(trifluoromethyl)-2,3-dihydroquinazolin-4(1H)-one]: the IC50 is at most 100 nM.

For `O=C1c2ccc(C(F)(F)F)cc2N(C2CCCCC2)CN1c1ccc(=O)[nH]c1` [Example 37, 1-cyclohexyl-3-(6-oxo-1,6-dihydropyridin-3-yl)-7-(trifluoromethyl)-2,3-dihydroquinazolin-4(1H)-one], the IC50 was 794 to 7940 nM.

In the case of `Cc1cc(F)ccc1N1CN(c2ccc(=O)[nH]c2Cl)C(=O)c2cc(C(F)(F)F)ccc21` [Example 210, 3-(2-chloro-6-oxo-1,6-dihydropyridin-3-yl)-1-(4-fluoro-2-methylphenyl)-6-(trifluoromethyl)-2,3-dihydroquinazolin-4(1H)-one], the IC50 was 126 to 631 nM.

With `Cc1[nH]c(=O)ccc1N1CN(c2ccc(F)cc2C(C)(C)C)c2ccc(Cl)cc2C1=O` [Example 95, 1-(2-(tert-butyl)-4-fluorophenyl)-6-chloro-3-(2-methyl-6-oxo-1,6-dihydropyridin-3-yl)-2,3-dihydroquinazolin-4(1H)-one], the IC50 was at most 100 nM.

As to `Cc1[nH]c(=O)ccc1N1CN(c2ccc(F)cc2)c2ccccc2C1=O` [Example 49, 1-(4-fluorophenyl)-3-(2-methyl-6-oxo-1,6-dihydropyridin-3-yl)-2,3-dihydroquinazolin-4(1H)-one], the IC50 was 794 to 7940 nM.

As to `Cc1cc(F)cc(C)c1N1CN(c2ccc(=O)[nH]c2)C(=O)c2ccc(C(F)(F)F)cc21` [Example 38, 1-(4-fluoro-2,6-dimethylphenyl)-3-(6-oxo-1,6-dihydropyridin-3-yl)-7-(trifluoromethyl)-2,3-dihydroquinazolin-4(1H)-one], the IC50 was 794 to 7940 nM.

On to `Cc1c[n+]([O-])ccc1N1CN(c2ccc(OC(F)(F)F)cc2C)c2ccc(C(F)(F)F)cc2C1=O` [Example 256, 3-methyl-4-(1-(2-methyl-4-(trifluoromethoxy)phenyl)-4-oxo-6-(trifluoromethyl)-1,4-dihydroquinazolin-3(2H)-yl)pyridine 1-oxide], for which the IC50 is at most 100 nM.

Take `Cc1[nH]c(=O)ccc1N1CN(c2ccc(F)cc2C(C)(C)C)c2ccc(Cl)cc2C1=O` (single isomer, unassigned) [Example 294, 1-(2-(tert-Butyl)-4-fluorophenyl)-6-chloro-3-(2-methyl-6-oxo-1,6-dihydropyridin-3-yl)-2,3-dihydroquinazolin-4(1H)-one]: the IC50 is at most 100 nM.

These data come from patent publication US20230103791A1 (GLAXOSMITHKLINE INTELLECTUAL PROPERTY DEVELOPMENT LIMITED, priority 2019, published 2023).
